Marks after values point to notes of the source that are not given here. No end group written: not given here.
Columns and labels:
[1] = system: Salmonella enterica subsp. enterica serovar Typhimurium LT2 (ST); assay: Anti-Salmonella growth inhibition and MIC; assay type: cell-based; details: No treatment
Description: Primary screening for anti-Salmonella activity of peptides: The inhibitory effect of the peptides was accessed as described previously. ST was grown overnight and adjusted to 5×10^5 CFU/mL; 100 microliters of this measured concentration was placed into the wells of a 96 well plate. Peptides 1-6 were added to the well at 12 mM concentration and plate was incubated in a TECAN Sunrise™ absorbance microplate reader at 37° C. with kinetic absorbance measurements taken every 30 minutes for 12 h. The growth inhibitory activity was calculated with the formula (OD600 DMSO treated well-OD600 peptide treated well)/OD600 DMSO treated well×100%. DMSO treated, Salmonella challenged wells and sterile media with no Salmonella challenge were used as controls. This experiment was done twice to ensure the accuracy and reproducibility of the results.
MIC was determined by selecting peptide concentration at which there is no increased growth (no increase in OD), given indication of no ST growth. An independent repeat experiment was conducted.
Heat and protease tolerance of peptides: P1, P2, and P4 were heated for 6 minutes at 86° C. or treated with protease proteinase K, 200 μg/mL at 50° C. for 30 minutes. After which, the treated and/or heated peptides at their respective MICs were evaluated in the inhibition assay with Salmonella. The protocol from above was repeated in the Tecan with the same controls. […]

Biofilm embedded ST = assay: MBEC Assay; assay type: cell-based, Salmonella enterica; details: at MICs; untreated 6.46 ± 0.09
Description: Peptides effect against biofilm embedded Salmonella: To analyze the ability of the peptides (P1, P2, and P4) to retain their inhibitory characteristics against biofilm protected Salmonella, Innovotech's MBEC Assay® (Innovotech Inc., AB, Canada) was conducted as previously detailed. Initially, 150 μL of 5×10^7 CFU/mL adjusted ST or SE suspension in LB media was aliquoted into the wells of MBEC inoculator plates containing polystyrene pegs and incubated for 36 h on a rocker platform at 37° C. to allow the biofilm formation. After biofilm formation, the pegs were washed to remove loosely adherent planktonic bacteria and transferred to a new 96-well plate containing peptides at MICs, with relevant controls, in 200 μL 25% LB media. The diluted LB media was used because it allows for slow bacterial growth to promote biofilm formation due to limited nutrients. The plate was incubated for 18 h at 37° C. with rotation at 150 rpm. Sterile media and DMSO were used as controls. Following incubation, the MICs of peptides in challenge plate were recorded. The pegs were transferred to new 96-well plate containing PBS and sonicated for 30 minutes to disrupt the biofilm. The sonicated suspensions were then ten-fold serially diluted and plated on LB agar plates to enumerate the biofilm protected bacteria and determine the minimum biofilm eradication concentration (MBEC) of peptides. Three independent experiments were conducted to ensure accuracy.

commensal bacteria = assay: Peptide activity against commensal bacteria; assay type: cell-based; details: at MICs
Description: Peptide activity against commensal bacteria: Peptides 1, 2, and 4 were used to assess if they would inhibit commensal microbes. The commensal bacteria used along with their culture requirements are described in Table 25. Peptides at their MICs were added to 100 μL of known concentration of commensal bacteria and incubated under their required conditions. OD600 of cultures was measured to assess the effect of peptides on bacterial growth.

cecal microbiota = assay: Cecal microbiome analysis (peptides, ST infected); assay type: in vivo, chickens; details: for Relative Abundance (%) Acinetobacter / Relative Abundance (%) Blautia / Relative Abundance (%) Caproiciproducens / Relative Abundance (%) Enterobacteriaceae (unidentified) / Relative Abundance (%) Epulopiscium / Relative Abundance (%) Lachnospiraceae (unidentified) / Relative Abundance (%) Lachnospiraceae NK4A136 group / Relative Abundance (%) Lactobacillus / Relative Abundance (%) Sellimonas / Relative Abundance (%) [Clostridium] innocuum group / Relative Abundance (%) [Eubacterium] coprostanoligenes group / Relative abundance (%) Anaerotruncus / Relative abundance (%) Clostridium sensu stricto 1 / Relative abundance (%) Enterococcus / Relative abundance (%) Erysipelatoclostridium / Relative abundance (%) Escherichia-Shigella / Relative abundance (%) Flavonifractor / Relative abundance (%) Lachnospiraceae (uncultured) / Relative abundance (%) Oscillibacter / Relative abundance (%) Pediococcus / Relative abundance (%) Ruminiclostridium 5 / Relative abundance (%) Ruminiclostridium 9 / Relative abundance (%) Ruminococcus torques group: genus
Description: Cecal microbiome analysis: To evaluate the role P1, P2, and P4 (50 mg/kg) treatment on the cecal microbiome of chickens, 16S rRNA based metagenomic study was conducted as previously described. DNA was extracted from approximately 0.2 g of cecal content using PureLink™ Microbiome DNA Purification Kit (Thermofisher Scientific). After which, RNA was removed with the treatment of RNase A (2 μL of 100 mg/mL solution per sample: Qiagen). NanoDrop 2000c Spectrophotometer (ThermoFisher Scientific) was used to check the quality and measure the quantity of the DNA. The extracted DNA was used in 16S rRNA V4-V5 sequencing done at MCIC (mcic.osu.edu/genomics/illumina-sequencing). Amplicon libraries were prepared using IFU KAPA HiFi HotStart ReadyMixPCR Kit (Roche). PCR products were cleaned using Agencourt AMPure XP beads (BECKMAN COULTER Life Sciences). Nextera XT DNA Library Preparation Kit (Illumina) was used to generate Illumina library and sequencing done with Illumina MiSeq platform generating paired end 300-bp reads. QIIME 2 (Quantitative Insights Into Microbial Ecology) bioinformatics platform (qiime2.org/) was used to conduct metagenomic analysis. Quality control of the raw reads was performed using FastQC 0.11.8 (Babraham Bioinformatics). Trimmomatic-0.33 was used to trim the adaptor and other Illumina-specific sequences (www.usadellab.org/cms/?page=trimmomatic). After which trimmed sequences (fastq.gz) were then imported into QIIME 2 as a manifest file format (PairedEndManifestPhred33V2). DADA2 was then used for the feature table construction and additional filtering of sequences. Taxonomic analysis was performed using Naive Bayes classifiers trained on the Silva 132 99% OTUs (silva-132-99-nb-classifier.qza) database. Phylogenetic diversity was analyzed using align-to-tree-mafft-fasttree pipeline. Additionally, Shannon's diversity index (alpha diversity) and Bray-Curtis distance (beta diversity) were analyzed using core-metrics-phylogenetic pipeline (docs.qiime2.org/2019.7/tutorials/moving-pictures/). Alpha and beta diversity statistical significance were analyzed using Kruskal-Wallis and PERMANOVA tests (P<0.05), respectively. The statistical difference (P<0.05) in the taxonomic composition between the groups was determined using Mann Whitney Test.

Row | Substance | MIC against ST [1] | Biofilm embedded ST (Biofilm embedded ST) | Growth of Bacteroides thetaiotaomicron (commensal bacteria) | Growth of E. coli Nissle 1917 and E. coli G58-1 (commensal bacteria) | Growth of Gram-positive commensal bacteria (commensal bacteria) | Relative Abundance (%) Acinetobacter (cecal microbiota) | Relative Abundance (%) Blautia (cecal microbiota) | Relative Abundance (%) Caproiciproducens (cecal microbiota) | Relative Abundance (%) Enterobacteriaceae (unidentified) (cecal microbiota) | Relative Abundance (%) Epulopiscium (cecal microbiota) | Relative Abundance (%) Lachnospiraceae (unidentified) (cecal microbiota) | Relative Abundance (%) Lachnospiraceae NK4A136 group (cecal microbiota) | Relative Abundance (%) Lactobacillus (cecal microbiota) | Relative Abundance (%) Sellimonas (cecal microbiota) | Relative Abundance (%) [Clostridium] innocuum group (cecal microbiota) | Relative Abundance (%) [Eubacterium] coprostanoligenes group (cecal microbiota) | Relative abundance (%) Anaerotruncus (cecal microbiota) | Relative abundance (%) Clostridium sensu stricto 1 (cecal microbiota) | Relative abundance (%) Enterococcus (cecal microbiota) | Relative abundance (%) Erysipelatoclostridium (cecal microbiota) | also measured
1 | MLNERVK [Peptide P4, MLNERVK] | 18 mM | 0.00 ± 0.00 Log CFU/ml | no inhibition | inhibited | No growth inhibition | 0.00% | 1.60% | 0.00% | 4.54% | 0.00% | 44.19% | 0.53% | 7.01% | 0.57% | 0.00% | 0.00% | 0.48% | 0.00% | 0.00% | 3.51% | Relative abundance of Lachnospiraceae (cecal microbiota; family, negative control 53%): 78%; Relative abundance (%) Escherichia-Shigella (cecal microbiota): 3.16† %; Relative abundance (%) Flavonifractor (cecal microbiota): 1.20%; Relative abundance (%) Lachnospiraceae (uncultured) (cecal microbiota): *11.71%; Relative abundance (%) Oscillibacter (cecal microbiota): 1.35%; Relative abundance (%) Pediococcus (cecal microbiota): 0.75%; Relative abundance (%) Ruminiclostridium 5 (cecal microbiota): 0.00%; Relative abundance (%) Ruminiclostridium 9 (cecal microbiota): 0.13† %; Relative abundance (%) Ruminococcus torques group (cecal microbiota): 19.27%
2 | PDENK [Peptide P2, PDENK] | 15 mM | 0.00 ± 0.00 Log CFU/ml | no inhibition | inhibited | No growth inhibition | 0.00% | 0.00% | 0.63% | 6.22% | 0.17% | 37.10% | 0.00% | 5.57% | 1.76% | 0.00% | 0.00% | 0.00% | 0.00% | 0.00% | 5.56% | Relative abundance (%) Escherichia-Shigella (cecal microbiota): 13.25%; Relative abundance (%) Flavonifractor (cecal microbiota): 2.33%; Relative abundance (%) Lachnospiraceae (uncultured) (cecal microbiota): 4.21%; Relative abundance (%) Oscillibacter (cecal microbiota): 0.00%; Relative abundance (%) Pediococcus (cecal microbiota): 0.00%; Relative abundance (%) Ruminiclostridium 5 (cecal microbiota): 0.00%; Relative abundance (%) Ruminiclostridium 9 (cecal microbiota): 0.00† %; Relative abundance (%) Ruminococcus torques group (cecal microbiota): 23.19%
